Legend:
[1] = test system: acute coronary insufficiency induced by vasopressine; experiment: anti-angina activity: inhibition of vasopressine-induced acute coronary insufficiency (rise of T-wave on ECG), method of Papp and Szekeres; type: in vivo, rats belonging to the CFY strain; settings: vasopressine 2 IU/kg i.v., pentobarbital anaesthetized CFY rats; papaverin = 1
[2] = test system: haemodynamic and cardiovascular system; experiment: general effects on the haemodynamic and cardiovascular system in pentobarbital anaesthetized dogs; type: in vivo; parameters: A. vertebralis flow, Changed value: unit not given here; settings: 1 mg/kg i.v.
[3] = test system: electric fibrillation threshold of the auricle and ventricle; experiment: antiarrhythmial effect: change of electric fibrillation threshold in chloralose-urethane anaesthetized cats; type: in vivo; settings: 1 mg/kg i.v.
Method: The antiarrhythmial effect is determined on chloralose-urethane anaesthetized cats [500/300 mg/kg i.p.] by measuring the changes of the electric fibrillation threshold of the auricle and ventricle respectively [method of Szekeres, Méhes and Papp: Brit. 0. Pharmacol. 17, 167 (1961) and that of Szekeres and Papp: Hdb. exp. Pharmacol. 16/3, 131 (1975) respectively]. The general effects exerted on the haemodynamic and cardiovascular system are tested on pentobarbital anaesthetized dogs (35 mg/kg i.v.).

In the case of `CCOc1cc(CC2=NCCc3cc(OCC)c(OCC)cc32)ccc1O` [Formula VII, 6,7-diethoxy-1-(3-ethoxy-4-hydroxy-benzyl)-3,4-dihydro-isoquinoline, reference compound], the “anti-angina activity related to that of papaverin” value [1] is reported as 1.28, the “A. carotis flow, Duration of effect” value [2] is reported as 12 min and the “A. carotis flow, Percental difference” value [2] is reported as -12. For the same compound, the “A. carotis resistance, Duration of effect” value [2] was 15 min, the “A. femoralis flow, Duration of effect” value [2] was 11 min and the “A. femoralis resistance, Duration of effect” value [2] was 18 min. The “A. vertebralis flow, Duration of effect” value [2] was 7 min, the “A. vertebralis resistance, Duration of effect” value [2] was 12 min and the “A. vertebralis resistance, Percental difference” value [2] was “+12”. For the same compound, the “Arterial blood pressure, Duration of effect” value [2] was 8 min, the “Arterial blood pressure, Percental difference” value [2] was -22 and the “Contractibility of the left ventricle (dp/dt), Percental difference” value [2] was -13. For the same compound, the “Coronary flow, Duration of effect” value [2] was 15 min, the “Coronary flow, Percental difference” value [2] was “+18” and the “Coronary resistance, Duration of effect” value [2] was 11 min. The “Coronary resistance, Percental difference” value [2] was -22, the “Efficiency of cardial function, Duration of effect” value [2] was 20 min and the “Efficiency of cardial function, Percental difference” value [2] was -13. For the same compound, the “Frequence volume, Duration of effect” value [2] was 5 min, the “Function of the left ventricle, Duration of effect” value [2] was 13 min and the “Function of the left ventricle, Percental difference” value [2] was -19. The “Heart frequence/min, Duration of effect” value [2] was 7 min, the “Minute volume, Duration of effect” value [2] was 3 min and the “Myocardial oxygenization (O2 supply per O2 consumption), Duration of effect” value [2] was 18 min. For the same compound, the “Myocardial oxygenization (O2 supply per O2 consumption), Percental difference” value [2] was “+10”, the “Oxygen consumption of the left ventricle, Duration of effect” value [2] was 9 min and the “Total peripherial resistance, Duration of effect” value [2] was 14 min. For the same compound, the “Total peripherial resistance, Percental difference” value [2] was -32, the “Efficiency of cardial function, Changed value” ([2]; average + S.E., basic value 0.32 ± 0.03) was 0.28 ± 0.05 mkg/ml/100 g and the “Coronary resistance, Changed value” ([2]; average + S.E., basic value 1.03 ± 0.10) was 1.42 ± 0.22 Hgmm/ml/min/100 g. For the same compound, the “Myocardial oxygenization (O2 supply per O2 consumption), Changed value” ([2]; average + S.E., basic value 1.62 ± 0.06) was 1.79 ± 0.10, the “A. carotis resistance, Changed value” ([2]; average + S.E., basic value 2.04 ± 0.3) was 2.19 ± 0.4 Hgmm/ml/min and the “Function of the left ventricle, Changed value” ([2]; average + S.E., basic value 2.74 ± 0.49) was 2.22 ± 0.56 mkg/min. The “A. vertebralis resistance, Changed value” ([2]; average + S.E., basic value 3.22 ± 0.61) was 3.65 ± 0.32 Hgmm/ml/min, the “A. femoralis resistance, Changed value” ([2]; average + S.E., basic value 3.48 ± 0.45) was 3.69 ± 0.68 Hgmm/ml/min and the “Frequence volume, Changed value” ([2]; average + S.E., basic value 8,8 ± 1) was 9.5 ± 1.2 mL. The “Oxygen consumption of the left ventricle, Changed value” ([2]; average + S.E., basic value 8.4 ± 0.9) was 7.9 ± 1.9 ml/min/100 g, the “A. femoralis flow, Changed value” ([2]; average + S.E., basic value 46 ± 5) was 42 ± 5 mL/min and the “A. vertebralis flow, Changed value” ([2]; average + S.E., basic value 54 ± 9) was 50 ± 7. For the same compound, the “Coronary flow, Changed value” ([2]; average + S.E., basic value 73 ± 13) was 86 ± 13 ml/min/100 g, the “A. carotis flow, Changed value” ([2]; average + S.E., basic value 91 ± 9) was 80 ± 10 mL/min and the “Arterial blood pressure, Changed value” ([2]; average + S.E., basic value 147 ± 9) was 115 ± 11 Hgmm. The “Heart frequence/min, Changed value” ([2]; average + S.E., basic value 173 ± 8) was 160 ± 9 min⁻¹, the “Minute volume, Changed value” ([2]; average + S.E., basic value 1500 ± 153) was 1466 ± 233 mL/min and the “Contractibility of the left ventricle (dp/dt), Changed value” ([2]; average + S.E., basic value 5625 ± 557) was 4883 ± 419 Hgmm/sec. For the same compound, the “Total peripherial resistance, Changed value” ([2]; average + S.E., basic value 7015 ± 238) was 4785 ± 275 dyn. sec. cm^-5, the “Arterial blood pressure, Duration of effect” value [3] was 5 min and the “Arterial blood pressure, Percental difference” value [3] was -23. The “Auricle fibrillation threshold, Duration of effect” value [3] was 9 min, the “Auricle fibrillation threshold, Percental difference” value [3] was “+48” and the “Ventricle fibrillation threshold, Duration of effect” value [3] was 12 min. The “Ventricle fibrillation threshold, Percental difference” value [3] was “+43”, the “Auricle fibrillation threshold, Changed value” ([3]; average + S.E., basic value 0.52 ± 0.07) was 0.77 ± 0.19 mA and the “Ventricle fibrillation threshold, Changed value” ([3]; average + S.E., basic value 0.70 ± 0.10) was 1.00 ± 0.18 mA. For the same compound, the “Arterial blood pressure, Changed value” ([3]; average + S.E., basic value 142 ± 11) was 110 ± 16 Hgmm.

— patent publication EP0067711A2, “New 1-benzyl-3,4-dihydro-isoquinoline derivative” (CHINOIN Gyogyszer és Vegyészeti Termékek Gyára RT., priority 1981, dated 1982)
